Experiments:
XRCC4 [1] = assay: qRT-PCR of shRNA-mediated inhibition of NHEJ component gene expression (Example 3); type: cell-based, human; conditions: AC16 cells, 5 μg shRNA plasmid, 3 days after transfection, FIG. 6
Protocol: (§1) Purification of total RNA was performed, and reverse transcription of total 1 μg RNA was performed with Superscript IV reverse transcriptase (INVITROGEN) using random hexamers. For real-time PCR, 1/20 of the RT product was amplified with the KAPA SYBR FAST qPCR kit (KAPA BIOSYSTEM, Wilmington, MA, USA) using the real-time cycler Quantstudio (THERMO FISHER SCIENTIFIC). The relative amount of mRNA transcripts was measured by the […]. GAPDH and 18s rRNA were used as endogenous controls.
(§2) 5 μg of plasmid vector encoding shRNA was prepared using All-in-one vector (Biofact), transfected into AC16 cells, and harvested 3 days after transfection. Then, mRNA expression of each NHEJ component gene was measured by qRT-PCR. […] The sequences of sense strands of the shRNAs used are described in Table 9.

XRCC4 [2] = assay: Western blot of shRNA-mediated inhibition of NHEJ component gene expression (Example 4); type: cell-based, human; conditions: AC16 cells, conditions as Example 3, FIG. 7
Protocol: (§3) Cell extracts were prepared by scraping cells with 60 to 80 μl of RIPA Lysis and Extraction Buffer (THERMOFISHER, 89900) containing protease inhibitor cocktail (ROCHE, 11836153001) at 4° C. and kept on ice for 10 minutes. The concentration of the cleared lysate was measured by Bradford assay (BIO-RAD), in which 20 to 65 μg of protein lysate, depending on the target protein, was loaded onto Mini-PROTEAN® TGX™ Precast Protein Gels (BIO-RAD), electrophoresed, and transferred to PVDF membranes using the Trans-Blot Turbo Transfer System (BIO-RAD). The membrane was incubated at room temperature for 1 hour in a blocking solution containing 5% non-fat dry milk in TBS-T and then incubated at 4° C. overnight with primary antibodies in TBS-T. After incubation with primary antibodies, the membrane was washed four times with TBS-T and then incubated at room temperature for 1 hour in a blocking solution containing anti-rabbit or anti-mouse immunoglobulin conjugated with HRP. The membrane was additionally washed four times with TBS-T and specific protein complexes were visualized with ECL prime (CYTIVA). Antibodies used were against KU70 (CST, 4588S), DNA ligase IV (CST, 146495), XLF (CST, 2854S), Artemis (CST, 13381), GAPDH (CST, 2118L), and XRCC4 (THERMO, MA5-24383).
(§4) shRNA-mediated inhibition of gene expression was analyzed by Western blot analysis. The experimental conditions were the same as in Example 3. […] As a result, the Western blot results were consistent with the qRT-PCR results.

ATM1 [3] = assay: qRT-PCR of shRNA-mediated inhibition of NHEJ component gene expression (Example 3); type: cell-based, human; conditions: AC16 cells, 5 μg shRNA plasmid, 3 days after transfection, FIG. 6
Protocol: as §1, §2

ATM1 [4] = assay: Western blot of shRNA-mediated inhibition of NHEJ component gene expression (Example 4); type: cell-based, human; conditions: AC16 cells, conditions as Example 3, FIG. 7
DCLRE1C [5] = assay: qRT-PCR of mRNA expression in AC16 cells transfected with candidate shRNAs (Example 12.1); type: cell-based, human; conditions: 5 ug, 3 days, among the five shDCLRE1C shRNAs, FIG. 17
Protocol: as §1
Candidate shRNAs for six genes known to be involved in the NHEJ repair pathway were transfected into previously prepared AC16 cells at a dose of 5 ug, and incubation was performed for 3 days. Then, the cells were harvested and qRT-PCR was used to measure the mRNA expression levels of the genes. The results are shown in FIG. 15 (ATM1 and XRCC4), FIG. 16 (XLF-1 and XRCC6), and FIG. 17 (LIG4 and DCLRE1C). From the results, the optimal shRNAs were selected. Scrambled indicates the control shRNA.

Dystrophin Exon 51, E51 [6] = assay: Quantification of large-scale deletion of E51 by qPCR in HEK293T cells (Example 7); type: cell-based, human; conditions: 3 days, shRNA + UnCas12f1 + gRNA pair F142/R52, qPCR, compared among shDCLRE1C-2, -3, -5, FIG. 10A
Protocol: Quantitative real-time PCR was used to quantify genomic DNA. Primer sequences were designed for each of the E51 internal regions where large-scale deletion occurs. For qPCR, 20 ng of gDNA was amplified with the KAPA SYBR FAST qPCR kit (KAPA BIOSYSTEM, Wilmington, MA, USA) using the real-time cycler Quantstudio (THERMO FISHER SCIENTIFIC).
(§5) The efficiency of large-scale deletion was analyzed by qPCR 3 days after treatment of HEK293T cells with the selected shRNA (shDCLRE1C-2, -3, or -5)+UnCas12f1 and a pair of gRNA (F142/R52), and the results are shown in FIG. 10A.
For shDCLRE1C and shXRCC6 among the shRNAs selected in Example 4, experiments were conducted in the same manner as in Example 7.1 using the two shRNAs alone, in combination, or one shRNA thereof in two copies, to analyze the efficiency of large-scale deletion of E51.

DCLRE1C [7] = assay: DCLRE1C mRNA level by qPCR in HEK293T cells (Example 7.1); type: cell-based, human; conditions: 3 days, compared among shDCLRE1C-2, -3, -5, FIG. 10B
Protocol: as §1, §5

Dystrophin Exon 51, E51 [8] = assay: Whole genome sequencing (WGS) analysis of E51 deletion efficiency (Example 8); type: cell-based, human; conditions: HEK293T cells, UnCas12f1 + gRNA pair F142/R52, 5 days after transfection, shRNA in two copies (shDC-3×2), FIG. 11
Protocol: HEK293T cells were transfected with UnCas12f1, a pair of gRNA (F142/R52), and shRNA, and then harvested 5 days after transfection. Genomic DNA was purified using a gDNA prep kit (Maxwell® RSC Cultured Cells DNA, PROMEGA, AS1620). 400 to 500 ng of genomic DNA was fragmented, and libraries were prepared using the MGIEasy FS DNA Library Prep. Kit (MGI Tech) according to the manufacturer's instructions. The libraries were then subjected to WGS using DNBSEQ-T7 (MGI Tech). Sequence reads were mapped to the human genome reference standard, GRCh38. Large-scale deletion efficiency was analyzed by counting reads mapped to the deleted region between a pair of gRNAs, and counts per million (CPM) was calculated. The percentage of deletion was calculated based on the difference in CPM between the sample and the control.
HEK293T cells were transfected with UnCas12f1, a pair of gRNA (F142/R52), and shRNA, and then harvested 5 days after transfection. gDNA was prepared therefrom for WGS that is performed to verify large-scale deletion efficiency. To compare the degree of deletion between the two gRNAs which is induced at both sides of E51, reads were mapped to the reference standard sequence and counting was performed within the deleted region. The data were presented as CPM (Count Per Million) along with each read count. […]

Dclre1c [9] = assay: qRT-PCR of murine Dclre1c mRNA after shRNA treatment in Hepa-1c1c7 cells (Example 11); type: cell-based, mouse; conditions: shRNA under U6 promoter, FIG. 14
Protocol: as §1
shRNAs for the Dclre1c gene encoding mouse Artemis protein were selected in Hepa-1c1c7 cells. The shRNAs, which are expressed under the U6 promoter, were generated, and qRT-PCR was performed to measure of the Dclre1c mRNA levels. […] The thus selected shRNAs can be used for in vivo studies using mouse models (for example, DMD mouse model with endogenous murine Dclre1c gene).

DCLRE1C [10] = assay: qRT-PCR of shRNA-mediated inhibition of NHEJ component gene expression (Example 3); type: cell-based, human; conditions: AC16 cells, 5 μg shRNA plasmid, 3 days after transfection, FIG. 6
Protocol: as §1, §2

Artemis = assay: Western blot of shRNA-mediated inhibition of NHEJ component gene expression (Example 4); type: cell-based, human; conditions: AC16 cells, conditions as Example 3, FIG. 7
Protocol: as §3, §4

Dystrophin Exon 51, E51 [11] = assay: E51 deletion by UnCas12f1 with shRNA, agarose gel of PCR-amplified E51 region and band intensity analysis (Examples 5, 6); type: cell-based, human; conditions: HEK 293T cells, Image J analysis of FIG. 8, comparison between shRNAs, FIG. 9
Protocol: A pair of guide RNAs for the targets F142 and R52 as shown in Table 14 was used to induce E51 deletion. In order to accurately find the optimal shRNA for a large-scale deletion strategy, comparison of the deletion efficiency altered by the selected shRNAs was conducted in HEK 293T cells. The E51 deletion efficiency was measured on an agarose gel in which the PCR-amplified E51 region was decomposed. From the results, it can be seen that treatment with shRNA increases the E51 deletion efficiency caused by UnCas12f1 .
To compare the large-scale deletion efficiency between various treatments with shRNA, intensity analysis was conducted on the deletion band (Del) and the non-deletion band (WT) in FIG. 8, and the relative values were calculated using Image J software.

LIG4 = assay: qRT-PCR of shRNA-mediated inhibition of NHEJ component gene expression (Example 3); type: cell-based, human; conditions: AC16 cells, 5 μg shRNA plasmid, 3 days after transfection, FIG. 6
Protocol: as §1, §2

DNA ligase IV = assay: Western blot of shRNA-mediated inhibition of NHEJ component gene expression (Example 4); type: cell-based, human; conditions: AC16 cells, conditions as Example 3, FIG. 7
Protocol: as §3, §4

XRCC6 = assay: qRT-PCR of shRNA-mediated inhibition of NHEJ component gene expression (Example 3); type: cell-based, human; conditions: AC16 cells, 5 μg shRNA plasmid, 3 days after transfection, FIG. 6
Protocol: as §1, §2

KU70 = assay: Western blot of shRNA-mediated inhibition of NHEJ component gene expression (Example 4); type: cell-based, human; conditions: AC16 cells, conditions as Example 3, FIG. 7
Protocol: as §3, §4

XLF [12] = assay: qRT-PCR of shRNA-mediated inhibition of NHEJ component gene expression (Example 3); type: cell-based, human; conditions: AC16 cells, 5 μg shRNA plasmid, 3 days after transfection, FIG. 6
Protocol: as §1, §2

XLF [13] = assay: Western blot of shRNA-mediated inhibition of NHEJ component gene expression (Example 4); type: cell-based, human; conditions: AC16 cells, conditions as Example 3, FIG. 7
Protocol: as §3, §4

## GAAUCCACCUUUGUUUCUGA (sense GAAUCCACCUUGUUUCUGA; part of shRNA hairpin, further chemistry not given here) [XRCC4-3]
XRCC4 [1]
  mRNA expression of NHEJ component gene XRCC4: most effective
XRCC4 [2]
  inhibition of XRCC4 expression by Western blot: effectively reduced expression of the target genes

## GGAGCUGAUUGUAGCAACA (listed as RNA, chemistry not given here) [ATM-3]
ATM1 [3]
  mRNA expression of NHEJ component gene ATM: most effective
ATM1 [4]
  inhibition of ATM expression by Western blot: effectively reduced expression of the target genes

## GCAGAAUUCUUCCCAGUCAUUCAAGAGAUGACUGGGAAGAAUUCUGC (short hairpin RNA, further chemistry not given here) [shDCLRE1C5]
DCLRE1C [5]
  mRNA expression inhibition efficiency (DCLRE1C): highest mRNA expression inhibition efficiency

## GCAGAGCUCUCGUUUCACAUUCAAGAGAUGUGAAACGAGAGCUCUGC (short hairpin RNA, further chemistry not given here) [shDCLRE1C3]
DCLRE1C [5]
  mRNA expression inhibition efficiency (DCLRE1C): highest mRNA expression inhibition efficiency

## GCACCGCAAGCCUUCUAUA (listed as RNA, chemistry not given here) [shDclre1c-3]
Dystrophin Exon 51, E51 [6]
  deletion level (efficiency of large-scale deletion of E51): highest deletion level
DCLRE1C [7]
  DCLRE1C mRNA level: most effectively downregulates DCLRE1C expression
Dystrophin Exon 51, E51 [8]
  mapped reads in the deleted region (CPM): decreased

## GGACAAAGCUGACUACAGAUUCAAGAGAUCUGUAGUCAGCUUUGUCC (short hairpin RNA, further chemistry not given here) [shDCLRE1C2]
DCLRE1C [5]
  mRNA expression inhibition efficiency (DCLRE1C): highest mRNA expression inhibition efficiency

## GAGCUGGGAGUUCAGGUUCA (listed as RNA, chemistry not given here) [shDclre1c-12]
Dclre1c [9]
  Dclre1c mRNA level: greatest decrease

## GCAGAGCUCUCCUUUCACA (sense GCAGAGCUCUCGUUUCACA; part of shRNA hairpin, further chemistry not given here) [DCLRE1C-3]
DCLRE1C [10]
  mRNA expression of NHEJ component gene DCLRE1C: most effective
Artemis
  inhibition of DCLRE1C (Artemis) expression by Western blot: effectively reduced expression of the target genes
Dystrophin Exon 51, E51 [11]
  large-scale deletion efficiency (relative intensity of deletion band vs non-deletion band): most effective

## GCAUGAUCCUUCUGUAGGA (listed as RNA, chemistry not given here) [LIG4-5]
LIG4
  mRNA expression of NHEJ component gene LIG4: most effective
DNA ligase IV
  inhibition of LIG4 (DNA ligase IV) expression by Western blot: effectively reduced expression of the target genes

## GCAGCAUUGUGCAGAUACA (listed as RNA, chemistry not given here) [XRCC6-1]
XRCC6
  mRNA expression of NHEJ component gene XRCC6: most effective
KU70
  inhibition of XRCC6 (KU70) expression by Western blot: effectively reduced expression of the target genes

## GCAUGAGUCUGGCAUUACA (listed as RNA, chemistry not given here) [XLF-1]
XLF [12]
  mRNA expression of NHEJ component gene XLF: most effective
XLF [13]
  inhibition of XLF expression by Western blot: effectively reduced expression of the target genes

From US20250283113A1, “COMPOSITIONS AND METHODS FOR INCREASING DELETION EFFICIENCY OF NUCLEIC ACID SEGMENT BY MODULATION OF NHEJ REPAIR PATHWAY” (GenKOre, Inc., priority 2022, published 2025)
